The values below come from patent publication US6395787B1, “Ocular hypotensive lipids” (Allergan Sales, Inc., priority 2000, dated 2002).

In test [1] the target is T1, recombinant feline FP receptor (Felis catus, UniProt A0ABI7XJ69). Put plainly: Ca2+ signal in HEK-293 cells stably transfected with recombinant feline FP receptor. The class given is cell-based, cat. As to conditions: for Δ[Ca^2+]i mean χ ± SEM: n = 3. The method, then: Human CRL 1497 cells were plated in culture flasks and fed Dulbecco's modified Eagle's medium (DMEM) containing 10% fetal calf serum, 2 mM 1-glutamine, and 0.05 mg/ml gentacin (all purchased from Gibco, Grand Island, N.Y.). Cell cultures were maintained in a humidified atmosphere of 95% air, 5% CO2 and grown to confluency. Cells were removed from the culture flasks by approximately 1 min treatment with trypsin 0.05%/0.53 mM EDTA in Hanks Balanced Salt Solution (HBSS, Gibco, Grand Island, N.Y.) at 37° C. Proteolytic activity was arrested by adding 5 ml of 10% fetal bovine serum in DMEM. The cells were consecutively washed in Hank's BSS and medium containing 140 mM NaCl, […], 1 mM MgCl2, 1.5 mM CaCl2, 10 mM HEPES: TRIS, 5 mM glucose, 5 mM Na pyruvate, 0.1% bovine serum albumin at pH 7.4: Centrifugation for the washes was performed for 15 minutes at 200 g at room temperature. Cells were counted, resuspended in the above medium and incubated with 2×10^−6 M Fura 2/acetoxymethyl ester in a shaking water bath for 30 minutes at 37° C. The cells were subsequently washed in medium as above and resuspended at a concentration of 2×10^6 cells ml^−1. Aliquots of 0.5 ml cell suspension were then added to autocap microtubes to provide 10^6 cells per experimental determination of intracellular free Ca^2+ concentration ([Ca^2+]i).
Fluorescence was measured in a Perkin-Elmer LS-5 fluorescence spectrophotometer at excitation and emission wavelengths of 340 and 492 nm, respectively, with both slits at 10 nm. For each experimental determination 10^6 cells were washed (200×g for 5 min) and suspended in a 2 ml cuvette with buffer containing 120 mM NaCl, 6 mM KCl, 1 mM MgSO4, 1.5 mM CaCl2, 20 mM HEPES, 1 mg ml^−1 glucose and 1 mg ml^−1 Na pyruvate. Stirring was achieved by an overhead-mounted, paddle stirrer with the temperature maintained at 37° C. The cells were lysed with digitonin (10 μl of 100 mg ml^−1 DMSO) to obtain fmax. EGTA (100 mM) and sufficient 10N NaOH to adjust the pH to 8.5 were then successively added to obtain fmin.
HEK-293 cells were grown in DMEM with 10% fetal bovine serum (FBS), 250 μg ml^−1 G418 (Life Technologies) and 200 μg ml^−1 gentamicin or penicillin/streptomycin. […] For transfection, the cells were grown to 50-60% confluency on 10 cm plates. The plasmid pCEP4 incorporating cDNA inserts for the human FP receptor (20 μg) was added to 500 μl of 250 mM CaCl2. HEPES buffered saline×2 (2×HBSS, 280 mM NaCl, 20 mM HEPES acid, 1.5 mM Na2 HPO4, pH 7.05-7.12) was then added dropwise to a […], with continuous vortexing at room temperature. After 30 min, 9 ml DMEM were added to the mixture. The DNA/DMEM/calcium phosphate mixture was then added to the cells, which had been previously rinsed with 10 ml phosphate buffered saline (PBS). The cells were then incubated for 5 h. at 37° C. in humidified 95% air/5% CO2. The calcium phosphate solution was then removed and the cells were treated with 10% glycerol in DMEM for 2 min. The glycerol solution was then replaced by DMEM with 10% fetal bovine serum (FBS). The cells were incubated overnight and the medium was replaced by DMEM/10% FBS containing 250 μg ml^−1 G418 and penicillin/streptomycin. The following day hygromycin B was added to a final concentration of 200 μg ml^−1.
Ten days after transfection, hygromycin B resistant clones were individually selected and transferred to a separate well on a 24 well plate. […]

The target in test [2] is T1, recombinant feline FP receptor. Put plainly: Total inositol phosphate accumulation, HEK-293 cells with recombinant feline FP receptor. The class given is cell-based, cat. As to conditions: read-out: E.C.50, total inositol phosphate accumulation. Here is the method:
Ten days after transfection, hygromycin B resistant clones were individually selected and transferred to a separate well on a 24 well plate. At confluence each clone was transferred to one well of a 6 well plate, and then expanded in a 10 cm dish. Cells were maintained under continuous hygromycin selection until use. The stable cat FP receptor transfectants were similarly prepared using […]. Again cells were grown to 50-60% confluency on 10 cm plates and the plasmid pCEP4, incorporating cDNA inserts for the feline FP receptor, was transfected using lipofectin. Hygromycin B selection was started 48 hr post-transfection. Eight days after transfection, hygromycin B resistant clones were selected and transferred to 24 well plates. Ca^2+ signaling studies on recombinant cat and human FP receptors were performed in an identical manner to that described for the CRL 1497 cell studies.
Receptor-mediated phosphoinositide (PI) hydrolysis was determined by measuring the accumulation of total inositol phosphates (IP) in cells preincubated with ^3H-myoinositol. Stable cell lines of HEK 293 cells expressing human or cat FP receptors were plated in 10 cm dishes (10^6 cells per dish in DMEM with 10% FBS). […] The eluate was mixed with 10 ml Aquasol scintillation fluid (Packard Instrument Co.) and total [^3H] inositol phosphates was determined by a liquid scintillation counter.

T1 sequence (A0ABI7XJ69 entry or part of it): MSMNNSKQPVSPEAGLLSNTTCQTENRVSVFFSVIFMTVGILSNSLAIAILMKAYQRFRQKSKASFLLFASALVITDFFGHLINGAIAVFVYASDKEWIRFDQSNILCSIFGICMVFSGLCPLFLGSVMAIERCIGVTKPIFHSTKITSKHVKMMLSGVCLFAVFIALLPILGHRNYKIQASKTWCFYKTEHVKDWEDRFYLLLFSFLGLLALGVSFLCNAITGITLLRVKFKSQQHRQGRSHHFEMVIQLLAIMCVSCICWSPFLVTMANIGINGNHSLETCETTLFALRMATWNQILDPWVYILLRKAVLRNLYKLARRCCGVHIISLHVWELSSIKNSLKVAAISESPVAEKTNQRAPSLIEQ

`CCCCC[C@H](O)/C=C/[C@@H]1[C@@H](C/C=C\CCCC(=O)NCCO)[C@@H](O)C[C@H]1O` [PGF2α 1-ethanolamide, (5Z,8α,9α,11α,13E,15S)-9,11,15-trihydroxy-N-(2-hydroxyethyL)prosta-5,13-dien-1-amide]: the “Δ[Ca^2+]i mean χ ± SEM” value in test [1] (10^−9 M) was 22.2 ± 6.4; in test [1] (10^−10 M), 6.5 ± 5.0. Further, the “difference in potency vs PGF2α” value in test [1] (HEK-293 cells, recombinant feline FP receptor, Ca2+ signal) is listed as “approximately 100 fold”. The EC50 stood at 1460 nM in test [1] (HEK-293 cells, recombinant feline FP receptor, read-out: E.C.50, Ca2+ signal) and 524 nM in test [2].
